Test [1] deals with mTORC1 activity, S6K1 (Thr389) in WT 293T cells. Nature of the test: S6K1(Thr389) phosphorylation ELISA in wild-type 293T cells. The note with it: 2 hours. Format: cell-based. The protocol: (§1) WT, FKBP12 knock-out, FKBP12/12.6/13/52/51 knock-out or FKBP12/12.6/25/52/51 knock-out 293T cells were plated at a density of 30,000 cells per well in poly-D-Lysine coated 96-well plates (Corning, #354461) in Dulbecco's modified Eagle's medium (ThermoFisher, #11995-065) supplemented with 10% fetal bovine serum (ThermoFisher, #16140-071). Cells were incubated at 37° C., 5% CO2 for 48 hours until they reached ˜80% confluence. […] Media supplemented with blank Dimethyl sulfoxide (DMSO) was used as a control for both compounds. Phosphorylated amounts of S6K1 (Thr389) were detected by a sandwich ELISA kit (Cell signaling, #7063C) following the manufacture's protocol.
S6K1 is a downstream target of mTORC1 and phosphorylation of its rapalog-sensitive Thir389 site is used as a functional readout of mTORC1 activity (Lee, C. H., Inoki, K. and Guan, K. L. (2007). mTOR pathway as a target in tissue hypertrophy. Annu. Rev. Pharmacol. Toxicol. 47, 443-467).
A general note: In an ELISA, binding on a coated surface is turned into a signal by an enzyme label.

The test system of test [2] is mTORC1 activity, S6K1 (Thr389) in FKBP12/12.6/13/52/51 knock-out 293T cells. Nature of the test: S6K1(Thr389) phosphorylation ELISA in FKBP12/12.6/13/52/51 knock-out 293T cells. Format: cell-based.
Source text: A CRISPR/Cas9 system was used to deliver ribonucleoprotein complexes containing guide RNA (gRNA) sequences that target FKBP12
([…], location 35620248) into 293T cells, using the Amaxa® 4D-Nucleofector™ X Kit (Lonza, V4XC-2032). Cell clones were screened by immunoblotting with anti-FKBP-specific antibodies: FKBP12 (Novus, NB300-508), FKBP12.6 (Abnova, H00002281-M01), FKBP13 (R&D Systems, MAB4356), FKBP25 (R&D Systems, MAB3955), FKBP52 (Cell signaling Technology, #11826) and FKBP51 (Cell signaling Technology, #12210). […] Quintuple FKBP12/12.6/13/52/51 knock-out and FKBP12/12.6/25/52/51 knock-out cells were generated by sequentially knocking out five FKBP genes.
as §1

Test [3] addresses T1, FKBP12-rapalog-mTOR (amino acids 2019-2112) ternary complex (Homo sapiens, UniProt P42345+P62942).
T1 construct: his^6-mTOR (amino acids 2019-2112) was diluted in buffer; made in house; host or cells: E. coli
In words: SPR ternary complex formation, rapalog bound to FKBP12 with mTOR. Format: binding. The conditions noted are these: rapalog bound to FKBP with mTOR, read-out: FKBP12 apparent affinity KD for ternary complex formation. Here is the method: (§2) N-terminal avi-his6-tagged FKBP fusion proteins were expressed in E. coli and purified with nickel chromatography using standard procedures. Biotinylated his-avi-FKBPs were immobilized on a streptavidin chip using a Biacore 8K (GE Healthcare). To determine the kinetics-affinity of the rapalogs for FKBPs, rapalogs were diluted in DMSO to 50× working concentration. Next, 3.1 uLs of each rapalog solution was added to 150 uLs of buffer (50 mM Tris pH 7.5/150 mM NaCl/0.01% Tween 20/1 mM DTT) in a 384 deep well plate (greiner bio-one/78127) and mixed using a Biomek FX. The rapalog solution gradients (6 concentrations/2 fold dilutions, 3.1-100 nM or 31-1000 nM or 310-10000 nM) were then injected at 45 uL/min for 120 seconds: contact time and dissociation time was 1800 seconds in running buffer (50 mM Tris pH 7.5/150 mM NaCl/0.01% Tween 20/1 mM DTT/2% DMSO). The single-cycle kinetics data were fit to a 1:1 binding model to measure the association rate ka (1/Ms), the dissociation rate kd (1/s) and the affinity KD (M). […] 3.1 uLs of the 500 μM rapalog solutions were added to 150 uLs of the mTOR samples in a 384 deep well plate (greiner bio-one/78127) and mixed using a Biomek FX. The mTOR solution gradients were then injected at 45 uL/min for 120 seconds: contact time and dissociation time was 1800 seconds in running buffer (50 mM Tris pH 7.5/150 mM NaCl/0.01% Tween 20/1 mM DTT/2% DMSO). […]

Another test deals with T2, FKBP52 (Homo sapiens, UniProt Q02790).
T2 construct: made in house; host or cells: E. coli
T2 sequence (Q02790 1-459): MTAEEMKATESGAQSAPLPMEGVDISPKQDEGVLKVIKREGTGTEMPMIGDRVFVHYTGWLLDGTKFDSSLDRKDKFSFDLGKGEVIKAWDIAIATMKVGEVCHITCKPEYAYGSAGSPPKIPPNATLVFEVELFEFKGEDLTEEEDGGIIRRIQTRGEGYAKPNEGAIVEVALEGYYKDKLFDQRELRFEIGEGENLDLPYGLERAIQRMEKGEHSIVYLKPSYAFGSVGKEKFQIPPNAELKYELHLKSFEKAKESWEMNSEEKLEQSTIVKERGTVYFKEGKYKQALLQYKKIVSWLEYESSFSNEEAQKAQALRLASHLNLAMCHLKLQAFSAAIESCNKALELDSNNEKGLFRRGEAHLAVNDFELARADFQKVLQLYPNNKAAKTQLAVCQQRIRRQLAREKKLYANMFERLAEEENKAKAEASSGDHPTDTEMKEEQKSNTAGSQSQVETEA
Nature of the test: SPR assay, binding affinity to FKBP52. The conditions noted are these: equilibrium dissociation constant. The protocol: N-terminal avi-his6-tagged FKBP fusion proteins were expressed in E. coli and purified with nickel chromatography using standard procedures. Biotinylated his-avi-FKBPs were immobilized on a streptavidin chip using a Biacore 8K (GE Healthcare). To determine the kinetics-affinity of the rapalogs for FKBPs, rapalogs were diluted in DMSO to 50× working concentration. Next, 3.1 uLs of each rapalog solution was added to 150 uLs of buffer (50 mM Tris pH 7.5/150 mM NaCl/0.01% Tween 20/1 mM DTT) in a 384 deep well plate (greiner bio-one/78127) and mixed using a Biomek FX. The rapalog solution gradients (6 concentrations/2 fold dilutions, 3.1-100 nM or 31-1000 nM or 310-10000 nM) were then injected at 45 uL/min for 120 seconds: contact time and dissociation time was 1800 seconds in running buffer (50 mM Tris pH 7.5/150 mM NaCl/0.01% Tween 20/1 mM DTT/2% DMSO). The single-cycle kinetics data were fit to a 1:1 binding model to measure the association rate ka (1/Ms), the dissociation rate kd (1/s) and the affinity KD (M). […] 3.1 uLs of the 500 μM rapalog solutions were added to 150 uLs of the mTOR samples in a 384 deep well plate (greiner bio-one/78127) and mixed using a Biomek FX. The mTOR solution gradients were then injected at 45 uL/min for 120 seconds: contact time and dissociation time was 1800 seconds in running buffer (50 mM Tris pH 7.5/150 mM NaCl/0.01% Tween 20/1 mM DTT/2% DMSO). The single-cycle kinetics data was fit to a 1:1 binding model to measure the association rate ka (1/Ms), the dissociation rate kd (1/s) and the apparent affinity KD (M) for ternary complex formation.
The equilibrium dissociation constants (KD) to FKBP12, FKBP51, and FKBP52 are shown below in Table 6.
(In general: In SPR one partner is held on a chip, and binding of the other changes the refractive index at the surface.)

Test [4] has as its target T3, FKBP52-rapalog-mTOR (amino acids 2019-2112) ternary complex (Homo sapiens, UniProt P42345+Q02790).
T3 construct: his^6-mTOR (amino acids 2019-2112) was diluted in buffer; made in house; host or cells: E. coli
Nature of the test: SPR ternary complex formation, rapalog bound to FKBP52 with mTOR. Format: binding. The note with it: rapalog bound to FKBP with mTOR, read-out: FKBP52 apparent affinity KD for ternary complex formation. Here is the method: as §2

Test [5] concerns the target T4, FKBP13-rapalog-mTOR (amino acids 2019-2112) ternary complex (Homo sapiens, UniProt P26885+P42345).
T4 construct: his^6-mTOR (amino acids 2019-2112) was diluted in buffer; made in house; host or cells: E. coli
In words: SPR ternary complex formation, rapalog bound to FKBP13 with mTOR. Format: binding. The note with it: rapalog bound to FKBP with mTOR, read-out: FKBP13 apparent affinity KD for ternary complex formation. Here is the method: as §2

Test [6] addresses T5, FKBP51-rapalog-mTOR (amino acids 2019-2112) ternary complex (Homo sapiens, UniProt P42345+Q13451).
T5 construct: his^6-mTOR (amino acids 2019-2112) was diluted in buffer; made in house; host or cells: E. coli
Nature of the test: SPR ternary complex formation, rapalog bound to FKBP51 with mTOR. Format: binding. The conditions noted are these: rapalog bound to FKBP with mTOR, read-out: FKBP51 apparent affinity KD for ternary complex formation. Here is the method:
as §2

T3 sequence (P42345 2019-2112 limits assumed, one chain of several): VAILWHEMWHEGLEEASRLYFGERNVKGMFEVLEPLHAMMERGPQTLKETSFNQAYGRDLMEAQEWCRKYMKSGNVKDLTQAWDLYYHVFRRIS
T4 sequence (P26885 22-142): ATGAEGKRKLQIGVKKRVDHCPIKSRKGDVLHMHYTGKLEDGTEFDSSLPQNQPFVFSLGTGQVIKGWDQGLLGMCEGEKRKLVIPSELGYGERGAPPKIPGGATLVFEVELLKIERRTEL
T4 sequence (P42345 2019-2112 limits assumed): as the sequence (P42345 2019-2112 limits assumed, one chain of several) above
T5 sequence (Q13451 whole entry, the tested form may be a part): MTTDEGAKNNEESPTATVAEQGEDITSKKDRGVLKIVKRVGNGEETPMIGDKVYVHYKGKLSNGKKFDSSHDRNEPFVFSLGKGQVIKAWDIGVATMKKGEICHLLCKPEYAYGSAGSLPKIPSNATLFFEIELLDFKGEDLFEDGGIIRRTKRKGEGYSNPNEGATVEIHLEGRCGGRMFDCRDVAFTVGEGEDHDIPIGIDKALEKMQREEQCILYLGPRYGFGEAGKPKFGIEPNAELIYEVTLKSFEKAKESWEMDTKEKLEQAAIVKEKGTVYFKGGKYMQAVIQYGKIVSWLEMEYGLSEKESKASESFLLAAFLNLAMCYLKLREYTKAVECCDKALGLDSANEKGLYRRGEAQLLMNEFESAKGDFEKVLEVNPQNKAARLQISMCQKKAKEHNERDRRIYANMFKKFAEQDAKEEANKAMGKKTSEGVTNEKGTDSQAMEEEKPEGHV
T5 sequence (P42345 2019-2112 limits assumed): as the sequence (P42345 2019-2112 limits assumed, one chain of several) above
T1 sequence (P62942 whole entry, the tested form may be a part): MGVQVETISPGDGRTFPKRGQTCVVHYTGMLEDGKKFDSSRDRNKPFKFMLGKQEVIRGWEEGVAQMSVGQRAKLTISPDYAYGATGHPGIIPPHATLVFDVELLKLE
T1 sequence (P42345 2019-2112 limits assumed): as the sequence (P42345 2019-2112 limits assumed, one chain of several) above

In the case of `CO[C@@H]1C[C@H](C[C@@H](C)[C@@H]2CC[C@H](C)/C=C(\C)[C@@H](O)[C@@H](OC)C(=O)[C@H](C)C[C@H](C)/C=C/C=C/C=C(\C)[C@@H](NS(C)(=O)=O)C[C@@H]3CC[C@@H](C)[C@@](O)(O3)C(=O)C(=O)N3CCCC[C@H]3C(=O)O2)CC[C@H]1O` [Compound 2], the “inhibition of S6K1(Thr389) phosphorylation” value in test [1] was roughly 80%. In test [2], the “inhibitory effect (potency) on S6K1 (Thr389), in words” value was “efficacious in inhibiting S6K1 (Thr389)”. Moreover, in test [2] (at the highest tested concentration), the “inhibition of S6K1 (Thr389)” value was roughly 90%. The Kd in test [3] is 25 nM; at FKBP52 it was 374 nM; in test [4], 36 nM; in test [5] it was 127 nM; in test [6], 52 nM.

As for `CO[C@H]1C[C@@H]2CC[C@@H](C)[C@@](O)(O2)C(=O)C(=O)N2CCCC[C@H]2C(=O)O[C@H]([C@H](C)C[C@@H]2CC[C@@H](OCCO)[C@H](OC)C2)CC(=O)[C@H](C)/C=C(\C)[C@@H](O)[C@@H](OC)C(=O)[C@H](C)C[C@H](C)/C=C/C=C/C=C/1C` [RAD001, everolimus, reference compound], the “inhibition of S6K1(Thr389) phosphorylation” value in test [1] was roughly 80%. Besides, the “inhibitory effect (potency) on S6K1 (Thr389), in words” value in test [2] was “lost almost all it potency”. Further, the Kd came to 21 nM in test [3]; 1770 nM on FKBP52; 253 nM in test [4]; 21 nM in test [5]; 348 nM in test [6].
